Experimental data: US20250057837A1, “Methods for Treating HCV” (priority 2015, published 2025)

Columns and labels:
[1] = assay type: in vivo, human; details: for impact of HCV genotype and RBV coadministration on exposures: GT1-, GT2- or GT3-infected subjects
Description: Blood samples for pharmacokinetic analysis were collected throughout the study treatment period.

[2] = tested on: resistance-associated variants in GT 1a (H77) replicon; assay: Activity against resistance-associated variants in GT 1a replicon; assay type: cell-based, hepatitis C virus
[3] = tested on: resistance-associated variants in GT 1b (Con-1) replicon; assay: Activity against resistance-associated variants in GT 1b replicon; assay type: cell-based, hepatitis C virus
[4] = tested on: GT1a replicon NS3 A156T variant; assay: Resistant colony selection, GT1a subgenomic replicon cells; assay type: cell-based, hepatitis C virus; details: A156T in GT1a
[5] = tested on: GT3a NS3 protease replicon Q168R co-selected with Y56H; assay: Resistant colony selection, replicon containing GT3a NS3 protease (Q168R+Y56H); assay type: cell-based, hepatitis C virus
[6] = tested on: GT1b replicon NS3 A156V variant; assay: Resistant colony selection, GT1b subgenomic replicon cells; assay type: cell-based, hepatitis C virus; details: A156V in GT1b
[7] = tested on: GT3a NS3 protease replicon A156G variant; assay: Resistant colony selection, replicon containing GT3a NS3 protease (A156G); assay type: cell-based, hepatitis C virus; details: A156G alone
[8] = Phase 1 drug-drug interaction with tacrolimus in healthy subjects; details: coadministered with tacrolimus 1 mg
[9] = Phase 1 drug-drug interaction with cyclosporine in healthy subjects; details: coadministered with cyclosporine 100 mg
[10] = Phase 1 single and multiple ascending dose and food effect study of Compound 2 in healthy subjects
Description: This was a blinded, randomized, placebo-controlled Phase 1 study. […] Safety and tolerability were assessed throughout the study.

[11] = human, in vivo

SMILES | impact of HCV genotype and RBV coadministration on exposures [1] | impact of Compound 2 on Compound 1 exposures ([1]; coadministration) | inhibitory activity against NS3 resistance-associated variants ([2]; V36M, R155K, D168A and D168V in GT 1a (H77)) | activity against variants at NS3 amino acid positions 155 and 168 ([2]; common GT1a variants conferring resistance to other HCV protease inhibitors) | activity against NS5A inhibitor and NS5B inhibitor resistance-associated variants ([2]; e.g. M28T, M28V, Q30D, Q30R, Y93C, Y93H, Y93N, L31V+Y93H, C316Y, M414T, Y448C, Y448H, S556G and S559G in GT1a) | inhibitory activity against NS3 resistance-associated variants ([3]; T54A, R155K, D168V and V170A in GT 1b (Con-1)) | activity against variants at NS3 amino acid positions 155 and 168 ([3]; common GT1b variants conferring resistance to other HCV protease inhibitors) | activity against NS5A inhibitor and NS5B inhibitor resistance-associated variants ([3]; e.g. L28T, Y93H, S282T, C316Y, Y448H and S556G in GT 1b) | reduced susceptibility conferred by variant [4] [fold] | loss in susceptibility conferred by variant [5] [fold] | reduced susceptibility conferred by variant [6] [fold] | loss in susceptibility conferred by variant [7] [fold] | steady-state Cmax, AUC24, and C24 in plasma, change [8] [%] | steady-state AUC24 in plasma, increase [9] [%] | steady-state C24 in plasma, increase [9] [%] | steady-state Cmax in plasma, increase [9] [%] | severity of adverse events ([10]; SAD 1.5-600 mg, MAD 30-600 mg QD 10 days) | maximum tolerated dose ([10]; SAD and MAD portions) | dose-normalized Cmax and AUCt, change [11] [%]
CC(C)(C)[C@@H]1NC(=O)O[C@@H]2CCC[C@H]2OC/C=C/C(F)(F)c2nc3ccccc3nc2O[C@@H]2C[C@@H](C(=O)N[C@]3(C(=O)NS(=O)(=O)C4(C)CC4)C[C@H]3C(F)F)N(C2)C1=O [Compound 1] | no impact | minimal impact | nearly equivalent to that against wild-type HCV replicon | retained its activity | potent activity | nearly equivalent to that against wild-type HCV replicon | retained its activity | potent activity | 1400 | 1100 | 1800 | 1500 | – | – | – | – | – | – | –
COC(=O)N[C@H](C(=O)N1CCC[C@H]1c1nc2cc([C@H]3CC[C@H](c4cc5nc([C@@H]6CCCN6C(=O)[C@@H](NC(=O)OC)[C@@H](C)OC)[nH]c5cc4F)N3c3cc(F)c(N4CCC(c5ccc(F)cc5)CC4)c(F)c3)c(F)cc2[nH]1)[C@@H](C)OC [Compound 2] | no impact | – | – | – | – | – | – | – | – | – | – | – | ≤ 2 | 22 | 26 | 11 | mild | not reached | –
C=CCN1CC[C@]23c4c5ccc(O)c4O[C@H]2C(=O)CC[C@@]3(O)[C@H]1C5 [naloxone] | – | – | – | – | – | – | – | – | – | – | – | – | – | – | – | – | – | – | ≤ 12
